Reference: patent publication US9951044B2, “Quinazoline derivatives and their use as DNA methyltransferase inhibitors” (PIERRE FABRE MEDICAMENT, priority 2013, dated 2018)
Read-outs that look alike come from different tables or passages of the source.

Assays:
[1] = biological target: T1, human C-terminal DNMT3A (a.a. 623-908) (Homo sapiens, UniProt Q9Y6K1); test: DNMT3A assay (restriction-based fluorescence); format: biochemical; conditions: for inhibition at 10 µM: read-out: DNMT3A (% of inhibition) 10 μM; for inhibition at 20 µM: compound at 20 μM; for EC50: concentration range in triplicates; for inhibition at 32 µM: read-out: DNMT3A (% of inhibition) 32 μM
T1 construct: The human C-terminal DNMT3A (a.a. 623-908); made in house
From the text: DNMT3A enzyme inhibition was adapted from the restriction-based fluorescence assay protocol described in Ceccaldi et al. (ChemBioChem 2011, 12, 1337-45). Briefly, a 5′-labelled biotin oligonucleotide is hybridized to its complementary strand labelled with 6-carboxyfluorescein at the 3′-end into a 384 well microplate (black Optiplates; Perkin Elmer) pre-coated with avidin. The duplex contains a unique CpG site overlapping with a restriction site of a methylation sensitive restriction enzyme. The human C-terminal DNMT3A (a.a. 623-908), produced as described in Gros et al. (Nucleic Acids Research 2013 Aug. 25), was added in each well (200 ng/well) and mixed with the chemical compounds at desired concentrations and freshly prepared AdoMet (20 μM final concentration) to start the reaction in a total volume of 50 μL. After 1 hour incubation at 37° C. each well were washed three times with PBS, Tween-20 0.05%, NaCl (500 mM) and three more times with PBST. Specific fluorescent signals were detected with the methylation-sensitive restriction enzyme HpyCH4IV (NEB) as described and measured on a Perkin Elmer Envision detector. The percentage of inhibition is reported. The formula used to calculate the percentage of inhibition is [(X−Y)/X]×100, where X is the signal determined in the absence of the inhibitor and Y is the signal obtained in the presence of the inhibitor. The concentration at which 50% of efficacy of inhibition is observed (EC50) was determined by analysis of a concentration range of the tested compound in triplicates. The non-linear regression fittings with sigmoidal dose-response (variable slope) were performed with GraphPad Prism 4.03 (GraphPad Software).

[2] = tested on: Karpas299 human leukemia cells; test: Anti-proliferative activity on Karpas 299 cells (ATPLite); format: cell-based; conditions: KARPAS-299, 96 h, treatment days 1-3, viability day 4, mean of at least two experiments, 95% confidence interval in brackets
Method: (§1) KG-1 and Karpas299 human leukemia cells were obtained from the ATCC (USA) and cultivated in RPMI 1640 medium (with HEPES and Glutamine, BE12-115F, Lonza, France) supplemented with, respectively, 20% and 15% foetal calf serum (Lonza, France), at 37° C. and under 5% CO2. To measure the anti-proliferative properties of tested molecules, 2×10^4 cells are seeded at day 0 in a 96 wells plate. The compounds to be tested, stored at −20° C. as 10^−2 M stock solution in 100% DMSO, are freshly diluted on day 1 in RPMI 1640 medium, before adding a dose range of 3.2 nM to 10 μM to the cells. This treatment is repeated on day 2 and 3, and on day 4 cell viability is assessed using the ATPLite kit from Perkin (ATPlite 1 Step Luminescence Assay System, ref 3016739), following the provider instructions. The raw data are analyzed with GraphPad Prism software (v4.03) to generate EC50 values corresponding to the compound concentrations giving 50% reduction in cell viability. The values presented are the mean results of at least two independent experiments.

[3] = biological target: T2, His-DNMT1 (182 kDa, human) (Homo sapiens, UniProt P26358); test: DNMT1 assay ([methyl-3H] SAM Flashplate); format: biochemical; conditions: for inhibition at 32 µM: read-out: DNMT1 (% of inhibition) 32 μM; for inhibition at 100 µM: read-out: DNMT1 (% of inhibition) 100 μM
T2 construct: His; made in house
Method: His-DNMT1 (182 kDa, human) was cloned, expressed and purified as described in Halby et al. (ChemBioChem 2012, 13, 157-65). The reaction was performed in a 10 μL total reaction volume in low volume NBS™ 384-well microplates (Corning), containing the tested compound (up to 1% DMSO), 1 μM of a SAM/[methyl-^3H] SAM (3 TBq/mmol, PerkinElmer) mix in a ratio of 3-to-1 (isotopic dilution 1*:3), 0.3 μM of biotinylated hemimethylated DNA duplex (5′-GATmCGCmCGATGmCGmCGAATmCGmCGAT mCGATGmCGAT-3′ and BIOT-5′-[…] ATC-3′), and 90 nM of DNMT1 in methylation buffer (20 mM HEPES pH 7.2, 1 mM EDTA, 50 mM KCl, 25 μg/mL BSA). The reaction was incubated at 37° C. for 2 hours. 8 μL are then transferred into a streptavidin 96-well scintillant coated Flashplate™ (PerkinElmer) containing 190 μL of 20 μM SAH in 50 mM Tris-HCl pH 7.4. The Flashplate™ was agitated at room temperature for 1 hour, washed three times with 200 μL of 0.05% Tween®-20 in 50 mM Tris-HCl pH 7.4, and read in 200 μL of 50 mM Tris-HCl pH 7.4 on TopCount NXT (PerkinElmer).

[4] = tested on: PANC1 cells (human pancreatic carcinoma cells); test: Anti-proliferative activity on PANC1 cells (ATPlite one step); format: cell-based; conditions: PANC-1, 72 h incubation
Method: (§2) The antiproliferative activity of compounds was measured in vitro using the ATP quantification method “ATPlite one step assay” (Perkin Elmer ref 6016739) according to the manufacturer conditions.
(§3) Briefly, WM266.4 cells (human melanoma cells) (5×10^4 cells per ml in RPMI1640 medium, 10% FBS, 2 mM glutamine, 50 U/mL penicillin/streptomycin and 1.25 μg/mL fungizone), PANC1 cells (human pancreatic carcinoma cells) (2×10^4 cells per ml in DMEM medium, 10% FBS, 2 mM glutamine, 50 U/mL penicillin/streptomycin and 1.25 μg/mL fungizone), and U87MG cells (human neuronal gliablastoma-astrocytoma-cells) (3×10^4 cells per ml in MEM medium, 10% FBS, 2 mM glutamine, 50 U/mL penicillin/streptomycin and 1.25 μg/mL fungizone) were seeded in 96-well plates, incubated for 24 h and treated with 8 increasing concentrations of test compounds diluted in cells respective mediums, or vehicle in triplicate.
(§4) Cells were then incubated for 72 h at 37° C. in humidified 5% CO2 atmosphere.
(§5) At the end of the experiment, cell viability was evaluated by determining the level of ATP released by viable cells.
(§6) EC50 values were determined with curve fitting analysis method (non linear regression model with a sigmoid dose response, variable Hill slope coefficient) provided by the Prism Software (GraphPad). […]

[5] = tested on: WM266.4 cells (human melanoma cells); test: Anti-proliferative activity on WM266.4 cells (ATPlite one step); format: cell-based; conditions: WM 266-4, 72 h incubation, read-out: EC50 (μM) WN226.4
Method: as §2, §3, §4, §5, §6

[6] = tested on: KG-1 human leukemia cells; test: Anti-proliferative activity on KG-1 cells (ATPLite); format: cell-based; conditions: KG-1, 96 h, treatment days 1-3, viability day 4, mean of at least two experiments, 95% confidence interval in brackets
Method: as §1

[7] = tested on: U87MG cells (human neuronal gliablastoma-astrocytoma-cells); test: Anti-proliferative activity on U87MG cells (ATPlite one step); format: cell-based; conditions: U-87 MG, 72 h incubation
Method: as §2, §3, §4, §5, §6

T2 sequence (P26358 whole entry): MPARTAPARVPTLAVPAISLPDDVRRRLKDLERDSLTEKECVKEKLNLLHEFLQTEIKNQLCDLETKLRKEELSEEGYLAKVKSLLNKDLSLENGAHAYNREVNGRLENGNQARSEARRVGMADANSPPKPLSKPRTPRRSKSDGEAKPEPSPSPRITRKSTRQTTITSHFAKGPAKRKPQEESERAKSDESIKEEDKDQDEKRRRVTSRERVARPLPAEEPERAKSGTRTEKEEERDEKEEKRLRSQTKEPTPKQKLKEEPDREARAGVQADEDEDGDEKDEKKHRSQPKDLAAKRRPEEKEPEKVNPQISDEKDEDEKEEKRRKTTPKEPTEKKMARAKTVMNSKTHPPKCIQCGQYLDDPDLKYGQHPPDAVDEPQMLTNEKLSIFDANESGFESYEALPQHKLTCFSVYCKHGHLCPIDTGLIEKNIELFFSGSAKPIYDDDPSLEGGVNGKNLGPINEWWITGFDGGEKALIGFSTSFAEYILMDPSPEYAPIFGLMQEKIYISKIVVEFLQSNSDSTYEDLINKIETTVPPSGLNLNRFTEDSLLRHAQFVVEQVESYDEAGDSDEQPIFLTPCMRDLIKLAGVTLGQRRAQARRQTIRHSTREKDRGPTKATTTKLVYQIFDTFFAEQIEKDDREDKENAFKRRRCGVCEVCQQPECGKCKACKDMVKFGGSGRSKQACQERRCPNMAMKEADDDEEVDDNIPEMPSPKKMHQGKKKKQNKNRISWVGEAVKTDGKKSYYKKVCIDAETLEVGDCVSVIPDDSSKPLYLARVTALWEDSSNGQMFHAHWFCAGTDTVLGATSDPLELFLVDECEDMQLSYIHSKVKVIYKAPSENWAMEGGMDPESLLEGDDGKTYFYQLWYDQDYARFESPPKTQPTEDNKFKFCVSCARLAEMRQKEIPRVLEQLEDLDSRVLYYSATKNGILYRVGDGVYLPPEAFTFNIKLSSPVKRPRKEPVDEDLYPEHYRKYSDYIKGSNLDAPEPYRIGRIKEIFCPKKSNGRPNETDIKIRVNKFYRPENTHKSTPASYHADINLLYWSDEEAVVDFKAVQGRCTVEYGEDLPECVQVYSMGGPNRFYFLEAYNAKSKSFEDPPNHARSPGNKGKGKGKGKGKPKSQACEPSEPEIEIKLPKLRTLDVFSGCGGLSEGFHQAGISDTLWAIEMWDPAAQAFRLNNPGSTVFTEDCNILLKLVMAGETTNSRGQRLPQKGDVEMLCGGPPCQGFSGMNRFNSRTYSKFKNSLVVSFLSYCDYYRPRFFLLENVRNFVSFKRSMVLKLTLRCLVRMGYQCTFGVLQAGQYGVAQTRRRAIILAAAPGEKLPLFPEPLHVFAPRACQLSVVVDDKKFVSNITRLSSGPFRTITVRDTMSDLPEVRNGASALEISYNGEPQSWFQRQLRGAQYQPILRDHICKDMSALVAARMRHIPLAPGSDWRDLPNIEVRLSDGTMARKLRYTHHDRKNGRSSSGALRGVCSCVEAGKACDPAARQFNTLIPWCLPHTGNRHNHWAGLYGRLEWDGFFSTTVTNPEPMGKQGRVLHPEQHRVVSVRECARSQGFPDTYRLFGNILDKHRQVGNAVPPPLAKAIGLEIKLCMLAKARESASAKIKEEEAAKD
T1 sequence (Q9Y6K1 627-912 limits assumed): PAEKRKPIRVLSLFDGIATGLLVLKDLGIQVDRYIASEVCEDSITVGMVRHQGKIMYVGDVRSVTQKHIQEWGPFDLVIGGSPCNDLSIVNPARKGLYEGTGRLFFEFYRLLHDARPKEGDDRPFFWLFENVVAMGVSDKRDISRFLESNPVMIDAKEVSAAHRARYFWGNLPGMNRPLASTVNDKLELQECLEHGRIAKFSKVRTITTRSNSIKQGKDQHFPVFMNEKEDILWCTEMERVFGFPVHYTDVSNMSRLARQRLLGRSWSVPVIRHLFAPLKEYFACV

Structure (SMILES) | inhibition at 10 µM ([1]; compound at 10 μM) [%] | inhibition at 20 µM [1] [%] | EC50 [1] [µM] | inhibition at 32 µM ([3]; compound at 32 μM) [%] | inhibition at 100 µM ([3]; compound at 100 μM) [%] | inhibition at 32 µM ([1]; compound at 32 μM) [%] | also measured
c1ccc(CCCNc2ncnc3cc(OCC4CCN(CCNc5ccnc6ccccc56)CC4)ccc23)cc1 [Compound G, 4-((3-phenylpropyl)amino)-7-((1-(2-(quinolin-4-ylamino)ethyl)piperidin-4-yl)methoxy)quinazoline] | 81 | 97 | 2.4 | 24.5 | 91.2 | – | EC50 [2]: 1.8 µM; EC50 [4]: 1.2 µM; EC50 [5]: 3.9 µM; EC50 [6]: 0.5 µM; EC50 [7]: 8.9 µM
c1ccc(-c2ccc(CNc3ncnc4cc(OCC5CCN(CCNc6ccnc7ccccc67)CC5)ccc34)cc2)cc1 [Compound N, 4-([1,1′-biphenyl]-4-ylmethylamino)-7-((1-(2-(quinolin-4-ylamino)ethyl)piperidin-4-yl)methoxy)quinazoline] | 86 | – | – | 24 | 69 | 83 | EC50 [6]: 0.4 µM
COc1ccc(CCNc2ncnc3cc(OCC4CCN(CCNc5ccnc6ccccc56)CC4)ccc23)cc1 [AG, 4-(2-(4-methoxyphenyl)ethylamino)-7-((1-(2-(quinolin-4-ylamino)ethyl)piperidin-4-yl)methoxy)quinazoline] | 82 | – | – | 77 | 59 | 100 | –
c1ccc(CCCNc2ncnc3cc(OCCCNCCCCNc4ccnc5ccccc45)ccc23)cc1 [Compound B] | – | 67 | – | – | 86 | – | –
c1ccc(CCCNc2ncnc3cc(OCC4CCN(CCNc5ccncc5)CC4)ccc23)cc1 [Compound J, 4-(3-phenylpropylamino)-7-((1-(2-(pyridin-4-ylamino)ethyl)piperidin-4-yl)methoxy)quinazoline] | 47 | 65 | – | – | 33.7 | 72 | –
O=c1c2ccc(OCC3CCN(CCNc4ccnc5ccccc45)CC3)cc2ncn1CCNc1ccnc2ccccc12 [Compound M] | 89 | – | 1.1 | 100 | 100 | 91 | EC50 [2]: 0.7 µM; EC50 [6]: 1.3 µM
c1ccc(CCCNc2ncnc3cc(OCCCNCCCNc4ccnc5ccccc45)ccc23)cc1 [Compound A] | 60 | 76 | 10 | – | 97 | 85 | –
COc1cc2nccc(NCCN3CCC(COc4ccc5c(NCCCc6ccccc6)ncnc5c4)CC3)c2cc1OC [AQ, 4-((3-phenylpropyl)amino)-7-((1-(2-(6,7-dimethoxyquinolin-4-ylamino)ethyl)piperidin-4-yl)methoxy)quinazoline] | – | – | – | – | – | – | inhibition at 10 µM [1]: 95%; inhibition at 32 µM [1]: 95%; inhibition at 32 µM [3]: 61%; inhibition at 100 µM [3]: 100%
c1ccc(CN2CCC(Nc3ncnc4cc(OCC5CCN(CCNc6ccnc7ccccc67)CC5)ccc34)CC2)cc1 [AL] | 72 | – | 8 | 81 | 81 | 93 | –
Clc1ccccc1CCNc1ncnc2cc(OCC3CCN(CCNc4ccnc5ccccc45)CC3)ccc12 [AB, 4-(2-(2-chlorophenyl)ethylamino)-7-((1-(2-(quinolin-4-ylamino)ethyl)piperidin-4-yl)methoxy)quinazoline] | – | – | – | 42 | 97 | 100 | –
COc1ccc2c(NCCN3CCC(COc4ccc5c(NCCCc6ccccc6)ncnc5c4)CC3)ccnc2c1 [AP, 4-((3-phenylpropyl)amino)-7-((1-(2-(7-methoxyquinolin-4-ylamino)ethyl)piperidin-4-yl)methoxy)quinazoline] | – | – | 2.6 | – | – | – | inhibition at 10 µM [1]: 70%; inhibition at 32 µM [1]: 80%; inhibition at 100 µM [3]: 90%
c1ccc(CNc2ncnc3cc(OCC4CCN(CCNc5ccnc6ccccc56)CC4)ccc23)cc1 [Compound P, 4-(3-benzylamino)-7-((1-(2-(quinolin-4-ylamino)ethyl)piperidin-4-yl)methoxy)quinazoline] | 43 | – | 13.1 | 26 | 22 | 81 | –
